This is an account of results in paper PMC9073595, “Synthesis, human topoisomerase IIα inhibitory properties and molecular modeling studies of anti-proliferative curcumin mimics” (RSC Advances, 2019).

Each structure is given as a SMILES string.

Series [1] concerns A431 (squamous skin) carcinoma cell line. The experiment in a line: MTT anti-proliferative assay, A431. The series is classed as cell-based. The note with it: Homo sapiens, A-431, 72 h; read-out: IC50, μM ± SD, A431. (Formazan colour is commonly taken as a measure of viable cells.)
The test system of series [2] is HCT116 (colon) carcinoma cell line. The experiment in a line: MTT anti-proliferative assay, HCT116. The note with it: Homo sapiens, HCT-116, 72 h; read-out: IC50, μM ± SD, HCT116. The series is classed as cell-based.
Series [3] deals with RPE1 (normal human immortalized retinal pigment epithelial cell line). The experiment in a line: MTT assay on normal cells, RPE1. Format: cell-based. The note with it: RPE-1, RPE1 normal (non-cancer) cell line, read-out: IC50, μM ± SD, RPE1. As for the experimental part: In-vitro antitumor screening
The targeted piperidinecarboxamides 24‒51 were screened for their antitumor properties against HCT116 (colon), MCF7 (breast) and A431 (squamous skin) carcinoma cell lines by the standard mitochondrial dependent reduction of yellow MTT [3-(4,5-dimethylthiazol-2-yl)-2,5-diphenyl-tetrazolium bromide] to purple formazan technique.11 Cells were suspended in McCoy’s 5A medium for HCT116, DMEM for MCF-7 and A431 in addition to 1% antibiotic–antimycotic mixture (10000 μg ml-1 potassium penicillin, 10000 μg ml-1 streptomycin sulfate and 25 μg ml-1 amphotericin B), 10% fetal bovine serum and 1% L-glutamine at 37 °C, under 5% CO2 and 95% humidity. Cells were seeded at concentration of 30000 cells per well in fresh complete growth medium in 96-well tissue culture microtiter plates for 24 h. Media was aspirated, fresh complete medium was added and cells were incubated with different concentrations of the tested compound to give a final concentration of [50, 25, 12.5 and 6.25 μM ([…] and 0.375 μM for the high potent analogues)]. 0.5% DMSO was used as negative control and 5-fluorouracil was used as positive control (standard reference). Triplicate wells were prepared for each individual dose. After 72 h of incubation, medium was aspirated, 40 μl MTT salt (2.5 mg ml-1) were added to each well and incubated for further 4 h at 37 °C.
To stop the reaction and dissolve the formed crystals, 150 μl of 10% sodium dodecyl sulfate (SDS) in deionized water were added to each well and incubated overnight at 37 °C. The absorbance was then measured at 570 nm and a reference wavelength of 595 nm.
Data were collected as mean values for experiments performed in triplicates for each individual dose which had been measured by MTT assay. Control experiments did […]
survival was calculated according to equ. (1).
Surviving fraction = … . (1)
The synthesized compounds 24‒51 were also tested against RPE1 (normal human immortalized retinal pigment epithelial cell line) cell to determine the toxicity/selectivity […]
towards normal cells relative to the carcinoma cell lines utilized. The IC50 (concentration […]
was determined using Graph-Pad PRISM version-5 software. Statistical calculations for determination of the mean and standard error values were determined by SPSS 16 […]
8:1 which is the ratio between the data points and the number of QSAR descriptor).
Human DNA topoisomerase IIα inhibitory properties

Series [4] has as its system MCF7 (breast) carcinoma cell line. In words: MTT anti-proliferative assay, MCF7. The settings on record: Homo sapiens, MCF7, 72 h; read-out: IC50, μM ± SD, MCF7. Format: cell-based.

`COc1ccc(NC(=O)N2C/C(=C\c3cccs3)C(=O)/C(=C/c3cccs3)C2)cc1` [Compound 49, (3E,5E)-N-(4-Methoxyphenyl)-4-oxo-3,5-bis(thiophen-2-ylmethylene)piperidine-1-carboxamide] had a melting point of 194 to 196 °C. Also, the IC50 in series [1] was greater than 50 µM. Moreover, the IC50 in series [2] was found to be 40.8 ± 2.61 µM. Further, the IC50 in series [3] was greater than 50 µM. Moreover, the IC50 in series [4] is 24.7 ± 1.99 µM.
The compound `O=C1/C(=C/c2ccccc2)CN(C(=O)Nc2ccc(Cl)cc2)C/C1=C\c1ccccc1` [Compound 25, 3,5-Di[(E)-benzylidene]-N-(4-chlorophenyl)-4-oxopiperidine-1-carboxamide] returned a melting point of 186 to 188 °C. In addition, the IC50 in series [1] was 2.51 ± 0.24 µM. Besides, the IC50 in series [2] came to 1.03 ± 0.29 µM. Besides, the IC50 in series [3] is 22.1 ± 2.06 µM. In addition, the IC50 in series [4] amounted to 2.09 ± 0.26 µM.
The compound `CCNC(=O)N1C/C(=C\c2cccs2)C(=O)/C(=C/c2cccs2)C1` [Compound 50, (3E,5E)-N-Ethyl-4-oxo-3,5-bis(thiophen-2-ylmethylene)piperidine-1-carboxamide] returned a melting point of 197 to 199 °C. In addition, the IC50 in series [1] amounted to 40.6 ± 2.88 µM. In series [2], the IC50 came to 20.1 ± 2.44 µM. For the same compound, the IC50 in series [3] worked out at 47.4 ± 2.66 µM. The IC50 in series [4] was determined as 21.7 ± 2.78 µM.
As to `COc1cc(/C=C/C(=O)CC(=O)/C=C/c2ccc(O)c(OC)c2)ccc1O` [Curcumin], the IC50 amounted to 38.2 ± 2.36 µM in series [2] and 16 ± 2.04 µM in series [4].
`O=C1/C(=C/c2ccccc2)CN(C(=O)Nc2ccccc2)C/C1=C\c1ccccc1` [Compound 24, 3,5-Di[(E)-benzylidene]-4-oxo-N-phenylpiperidine-1-carboxamide]: the melting point fell in the range of 179 to 181 °C. Moreover, in series [1], the IC50 was 2.49 ± 0.31 µM. Moreover, the IC50 in series [2] amounted to 1.08 ± 0.18 µM. For the same compound, the IC50 in series [3] is 16.6 ± 1.57 µM. Moreover, in series [4], the IC50 was determined as 1.83 ± 0.14 µM.
The matching figures for `O=C1/C(=C/c2ccc(Cl)cc2)CN(C(=O)NCc2ccccc2)C/C1=C\c1ccc(Cl)cc1` [Compound 33, N-Benzyl-3,5-bis[(E)-4-chlorobenzylidene]-4-oxopiperidine-1-carboxamide]: 199 to 201 °C, 1.45 ± 0.12 µM, 1.13 ± 0.19 µM, 11.4 ± 1.68 µM and 2.14 ± 0.26 µM.
Regarding `O=C1/C(=C/c2cccs2)CN(C(=O)NCc2ccccc2)C/C1=C\c1cccs1` [Compound 51, (3E,5E)-N-Benzyl-4-oxo-3,5-bis(thiophen-2-ylmethylene)piperidine-1-carboxamide], the IC50 in series [1], in series [2], in series [3] and in series [4] was greater than 50 µM each time.
For the compound `COc1ccc(NC(=O)N2C/C(=C\c3ccc(Cl)cc3)C(=O)/C(=C/c3ccc(Cl)cc3)C2)cc1` [Compound 31, 3,5-Bis[(E)-4-chlorobenzylidene]-N-(4-methoxyphenyl)-4-oxopiperidine-1-carboxamide], the melting point was in the range of 210 to 212 °C. In series [1], the IC50 amounted to 1.24 ± 0.14 µM. In series [2], the IC50 worked out at 1.03 ± 0.13 µM. Besides, in series [3], the IC50 was 7.5 ± 1.75 µM. The IC50 in series [4] was 1.44 ± 0.19 µM.
In the case of `O=C1/C(=C/c2cccs2)CN(C(=O)Nc2ccccc2)C/C1=C\c1cccs1` [Compound 48, (3E,5E)-4-Oxo-N-phenyl-3,5-bis(thiophen-2-ylmethylene)piperidine-1-carboxamide], the IC50 is greater than 50 µM in series [1], greater than 50 µM in series [2], greater than 50 µM in series [3] and 33.7 ± 1.38 µM in series [4].
`CCNC(=O)N1C/C(=C\c2ccc(Cl)cc2)C(=O)/C(=C/c2ccc(Cl)cc2)C1` [Compound 32, 3,5-Bis[(E)-4-chlorobenzylidene]-N-ethyl-4-oxopiperidine-1-carboxamide] registered a melting point of 211 to 213 °C. For the same compound, the IC50 in series [1] was determined as 1.31 ± 0.09 µM. For the same compound, the IC50 in series [2] came to 1.04 ± 0.11 µM. Moreover, the IC50 in series [3] is 12.1 ± 1.76 µM. In series [4], the IC50 came out at 2.35 ± 0.23 µM.

By IC50 is commonly meant the point on the concentration scale where inhibition reaches its midpoint. A word on the melting point: it is the temperature of the solid-liquid transition.
